Experimental data taken from patent US8158621B2, “Methods of treating or preventing autoimmune diseases with 2,4-pyrimidinediamine compounds” (Rigel Pharmaceuticals, Inc., priority 2002, dated 2012).

These compounds were tested against T1, Syk kinase (Homo sapiens, UniProt P43405) (assay: Syk kinase biochemical fluorescence polarization assay). Details: isolated Syk kinase, fluorescence polarization, 4 uM ATP.
T1 construct: purchased Upstate, Lake Placid NY

| Compound | IC50 |
| --- | --- |
| Fc1cc(Nc2nc(Nc3ccc4cn[nH]c4c3)ncc2F)ccc1Cl [Compound R935414] | 0.152 µM |
| COc1cc(Nc2nc(Nc3ccc4cn[nH]c4c3)ncc2F)ccc1F [Compound R935416] | 0.196 µM |
| CCOC(=O)CCn1ncc2cc(Nc3ncc(F)c(Nc4ccc5c(c4)NC(=O)C(C)(C)O5)n3)ccc21 [Compound R935431] | 0.132 µM |
| COC(=O)Cn1ncc2cc(Nc3ncc(F)c(Nc4ccc5c(c4)NC(=O)C(C)(C)O5)n3)ccc21 [Compound R935436] | 0.064 µM |
| CNC(=O)Cn1ncc2cc(Nc3ncc(F)c(Nc4ccc5c(c4)NC(=O)C(C)(C)O5)n3)ccc21 [Compound R935437] | 0.127 µM |
| COc1ccc(Nc2ncc(F)c(Nc3ccc4c(n3)NC(=O)C(C)(C)O4)n2)cc1Cl [Compound R940371] | 3.64 µM |
| COc1cc(Nc2ncc(F)c(Nc3ccc4c(n3)NC(=O)C(C)(C)O4)n2)cc(OC)c1 [Compound R940372] | 0.253 µM |
| CC1(C)Oc2ccc(Nc3nc(Nc4cccc(O)c4)ncc3F)nc2NC1=O [Compound R940382] | 0.144 µM |
| COc1ccc(Nc2ncc(F)c(Nc3ccc4c(n3)NC(=O)C(C)(C)O4)n2)cc1F [Compound R940384] | > 10 µM |
| CC1(C)Oc2ccc(Nc3nc(Nc4cccc(Cl)c4)ncc3F)nc2NC1=O [Compound R940386] | 19.5 µM |
| CC1(C)Oc2ccc(Nc3nc(Nc4cc(Cl)cc(Cl)c4)ncc3F)nc2NC1=O [Compound R940387] | > 10 µM |
| Cn1ncc2ccc(Nc3ncc(F)c(Nc4ccc5c(n4)NC(=O)C(C)(C)O5)n3)cc21 [Compound R940389] | 0.053 µM |
| CC(=O)N1CCN(c2ccc(Nc3ncc(F)c(NC4CCC4)n3)cc2)CC1 [Compound R945385] | 2.12 µM |
| O=C1COc2ccc(Nc3nc(Nc4ccc(Cl)c(Cl)c4)ncc3F)nc2N1 [Compound R945398] | 0.182 µM |
| COc1c(Cl)cc(Nc2ncc(F)c(Nc3ccc4c(n3)NC(=O)CO4)n2)cc1Cl [Compound R945400] | 17.9 µM |
| COc1ccc(Nc2ncc(F)c(Nc3ccc4c(n3)NC(=O)CO4)n2)cc1F [Compound R945402] | 0.418 µM |
| COc1ccc(Nc2ncc(F)c(Nc3ccc4c(n3)NC(=O)CO4)n2)cc1 [Compound R945404] | > 10 µM |
| O=C1COc2ccc(Nc3nc(Nc4ccc5c(c4)OCCO5)ncc3F)nc2N1 [Compound R945405] | 0.168 µM |
| O=C1COc2ccc(Nc3nc(Nc4ccc(N5CCOCC5)cc4)ncc3F)nc2N1 [Compound R945412] | 0.308 µM |
| CC(C)Oc1ccc(Nc2ncc(F)c(Nc3ccc4c(n3)NC(=O)CO4)n2)cc1 [Compound R945413] | > 10 µM |
| COC(=O)N1CCN(c2ccc(Nc3ncc(F)c(Nc4ccc5c(n4)NC(=O)C(C)(C)O5)n3)cc2)CC1 [Compound R945416] | 0.515 µM |
| CC(=O)N1CCN(c2ccc(Nc3ncc(F)c(Nc4ccc5c(n4)NC(=O)C(C)(C)O5)n3)cc2)CC1 [Compound R945419] | 0.127 µM |
| CC1(C)Oc2ccc(Nc3nc(Nc4ccc(N5CCOCC5)cc4)ncc3F)nc2NC1=O [Compound R945423] | 0.273 µM |
| CC1(C)Oc2ccc(Nc3nc(Nc4cccc(OCC(=O)NC5CCC5)c4)ncc3F)nc2NC1=O [Compound R945424] | 0.665 µM |
| CN1CCN(c2ccc(Nc3ncc(F)c(Nc4ccc5c(n4)NC(=O)CO5)n3)cc2)CC1 [Compound R945426] | 0.301 µM |
| CN1CCN(c2ccc(Nc3ncc(F)c(Nc4ccc5c(n4)NC(=O)C(C)(C)O5)n3)cc2)CC1 [Compound R945427] | 0.479 µM |
| Cc1cc(C)cc(Nc2ncc(F)c(Nc3ccc4c(n3)NC(=O)CO4)n2)c1 [Compound R945432] | 4440 µM |
| Cc1cc(C)cc(Nc2ncc(F)c(Nc3ccc4c(n3)NC(=O)C(C)(C)O4)n2)c1 [Compound R945433] | 0.431 µM |
| N[C@@H]1CCCC[C@H]1Nc1ncc(F)c(Nc2cc(Cl)cc(Cl)c2)n1 [Compound R950440] | > 10 µM |

What follows are compounds tested on cultured human mast cells (CHMC) (assay: CHMC low cell density IgE activation: tryptase assay). Details: low cell density; read-out: CHMC anti-IgE Tryptase.
Format: cell-based
Method in brief: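 Cultured human mast cells (1000-1500 cells/well, donor-dependent) equilibrated 1 hr at 37° C, then stimulated with anti-IgE for 30 min at 37° C. Tryptase released into the supernatant is measured with a fluorogenic tryptase substrate after 30 min at room temperature.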

| Compound | IC50 |
| --- | --- |
| Fc1cc(Nc2nc(Nc3ccc4cn[nH]c4c3)ncc2F)ccc1Cl [Compound R935414] | 0.204 µM |
| COc1cc(Nc2nc(Nc3ccc4cn[nH]c4c3)ncc2F)ccc1F [Compound R935416] | 0.166 µM |
| CCOC(=O)CCn1ncc2cc(Nc3ncc(F)c(Nc4ccc5c(c4)NC(=O)C(C)(C)O5)n3)ccc21 [Compound R935431] | 0.124 µM |
| COC(=O)Cn1ncc2cc(Nc3ncc(F)c(Nc4ccc5c(c4)NC(=O)C(C)(C)O5)n3)ccc21 [Compound R935436] | 0.058 µM |
| CNC(=O)Cn1ncc2cc(Nc3ncc(F)c(Nc4ccc5c(c4)NC(=O)C(C)(C)O5)n3)ccc21 [Compound R935437] | 0.082 µM |
| COc1ccc(Nc2ncc(F)c(Nc3ccc4c(n3)NC(=O)C(C)(C)O4)n2)cc1Cl [Compound R940371] | 0.316 µM |
| COc1cc(Nc2ncc(F)c(Nc3ccc4c(n3)NC(=O)C(C)(C)O4)n2)cc(OC)c1 [Compound R940372] | 0.094 µM |
| CC1(C)Oc2ccc(Nc3nc(Nc4cccc(O)c4)ncc3F)nc2NC1=O [Compound R940382] | 0.104 µM |
| COc1ccc(Nc2ncc(F)c(Nc3ccc4c(n3)NC(=O)C(C)(C)O4)n2)cc1F [Compound R940384] | 1.32 µM |
| CC1(C)Oc2ccc(Nc3nc(Nc4cccc(Cl)c4)ncc3F)nc2NC1=O [Compound R940386] | 3.42 µM |
| CC1(C)Oc2ccc(Nc3nc(Nc4cc(Cl)cc(Cl)c4)ncc3F)nc2NC1=O [Compound R940387] | 1.19 µM |
| Cn1ncc2ccc(Nc3ncc(F)c(Nc4ccc5c(n4)NC(=O)C(C)(C)O5)n3)cc21 [Compound R940389] | 0.06 µM |
| CC(=O)N1CCN(c2ccc(Nc3ncc(F)c(NC4CCC4)n3)cc2)CC1 [Compound R945385] | 1.1 µM |
| O=C1COc2ccc(Nc3nc(Nc4ccc(Cl)c(Cl)c4)ncc3F)nc2N1 [Compound R945398] | 7 µM |
| COc1c(Cl)cc(Nc2ncc(F)c(Nc3ccc4c(n3)NC(=O)CO4)n2)cc1Cl [Compound R945400] | > 10 µM |
| COc1ccc(Nc2ncc(F)c(Nc3ccc4c(n3)NC(=O)CO4)n2)cc1F [Compound R945402] | 0.112 µM |
| COc1ccc(Nc2ncc(F)c(Nc3ccc4c(n3)NC(=O)CO4)n2)cc1 [Compound R945404] | 0.103 µM |
| O=C1COc2ccc(Nc3nc(Nc4ccc5c(c4)OCCO5)ncc3F)nc2N1 [Compound R945405] | 0.131 µM |
| O=C1COc2ccc(Nc3nc(Nc4ccc(N5CCOCC5)cc4)ncc3F)nc2N1 [Compound R945412] | 0.095 µM |
| CC(C)Oc1ccc(Nc2ncc(F)c(Nc3ccc4c(n3)NC(=O)CO4)n2)cc1 [Compound R945413] | 1.7 µM |
| COC(=O)N1CCN(c2ccc(Nc3ncc(F)c(Nc4ccc5c(n4)NC(=O)C(C)(C)O5)n3)cc2)CC1 [Compound R945416] | 0.053 µM |
| CC(=O)N1CCN(c2ccc(Nc3ncc(F)c(Nc4ccc5c(n4)NC(=O)C(C)(C)O5)n3)cc2)CC1 [Compound R945419] | 0.125 µM |
| CC1(C)Oc2ccc(Nc3nc(Nc4ccc(N5CCOCC5)cc4)ncc3F)nc2NC1=O [Compound R945423] | 0.145 µM |
| CC1(C)Oc2ccc(Nc3nc(Nc4cccc(OCC(=O)NC5CCC5)c4)ncc3F)nc2NC1=O [Compound R945424] | 0.188 µM |
| CN1CCN(c2ccc(Nc3ncc(F)c(Nc4ccc5c(n4)NC(=O)CO5)n3)cc2)CC1 [Compound R945426] | 0.256 µM |
| CN1CCN(c2ccc(Nc3ncc(F)c(Nc4ccc5c(n4)NC(=O)C(C)(C)O5)n3)cc2)CC1 [Compound R945427] | 0.279 µM |
| Cc1cc(C)cc(Nc2ncc(F)c(Nc3ccc4c(n3)NC(=O)CO4)n2)c1 [Compound R945432] | 0.049 µM |
| Cc1cc(C)cc(Nc2ncc(F)c(Nc3ccc4c(n3)NC(=O)C(C)(C)O4)n2)c1 [Compound R945433] | 0.276 µM |
| N[C@@H]1CCCC[C@H]1Nc1ncc(F)c(Nc2cc(Cl)cc(Cl)c2)n1 [Compound R950440] | 10.5 µM |
